According to patent publication US9868695B2 (priority 2014, dated 2018):
pEC50, pIC50: −log10 of the molar value. “And” between values parts separate entries of the source, which are not always exact repeats. Equal values may be shown once. Read-outs that look alike come from different tables or passages of the source.

What was measured:
HCT-116 = assay: Antiproliferative activity, MTT assay, HCT-116; assay type: cell-based, Human; conditions: 48 h
Experimental: Human colon cancer cell lines HCT-116 (NCI, passage no. 5) and Colo-205 116 (NCI, passage no. 3) were procured from National Cancer Institute, USA. HCT-116 and Colo-205 cells were grown in McCoy's 5A and RPMI growth medium respectively containing 10% FCS, 100 U penicillin and […] per mL medium. Cells were grown in CO2 incubator (Thermocon Electron Corporation, Houston, Tex.) at 37° C. with 95% humidity and 5% CO2 gas environment. Cells treated with tested materials were dissolved in DMSO while the untreated control cultures received only the vehicle (DMSO<0.2%). Cells were seeded in 96 well plates and exposed to tested compounds at various concentrations for 48 h time interval. MTT dye (2.5 mg/ml in PBS) was added 4 hrs priors to experiment termination. The plates were then centrifuged at 1500 rpm for 15 min and the supernatant was discarded, and MTT formazan crystals were dissolved in 150 μl of DMSO. The OD measured at 570 nm with reference wavelength of 620 nm.
The percentages of cell viability and growth inhibition were calculated using formulas: […]

[1] = Oral and IV pharmacokinetic studies; assay type: in vivo; conditions: BALB/c mice; for bioavailability: PO 10 mg/Kg vs IV 1 mg/Kg
Experimental: Oral and intravenous (IV) pharmacokinetic studies of compound 1g were carried out in BALB/c male mice (Jubilant Biosys Limited, Bangalore) of age 4-6 weeks, by administering 1g orally and IV at dose of 10 mg/kg for oral and 1 mg/kg for IV. Plasma samples were collected at appropriate time points between the range of 0 hours to 24 hours and analyzed by LC-MS-MS. Mean plasma concentration calculated and data were further analyzed for PK parameters using WinNonlin 5.3 software package.

P-gp = P-gp induction assay, rhodamine123 (Rh123) cell exclusion method in LS-180 cells
Experimental: All synthesized compounds were screened for their ability to induce P-gp by using rhodamine123 (Rh123) cell exclusion method. In this method, the P-gp function was evaluated in terms of rhodamine 123 (Rh123) accumulation and efflux. Briefly, the protocol used is as follows: Colorectal LS-180 cells (ECACC type, purchased from Sigma, Cat. no. 87021202, cell passage no. 52) were seeded at a density of 2×10^4 per well of 96 well plate and were allowed to grow for next 24 h. Cells were further incubated with the test compounds, and were diluted to a final concentration of 100 nM and rifampicin (standard) to a final concentration of 10 μM in complete media for 48 h. The final concentration of DMSO was kept at 0.1%. Drugs were removed and cells were incubated with HANKS buffer for 40 minutes before further incubation with HANKS buffer (containing 10 μM of Rh123 as a P-gp substrate) for 90 minutes. At the end of Rh123 treatment cells were washed four times with cold PBS followed by cell lysis for 1 h by using 200 μl of lysis buffer (0.1% Triton X-100 and 0.2 N NaOH). A total of 100 μl of lysate was used for reading fluorescence of Rh123 at 485 nm/529 nm. Samples were normalized by dividing fluorescence of each sample with total protein present in the lysate. For EC50 determination, different concentrations of compound were used to treat LS180 cells for 48 h. EC50 was determined by plotting fluorescence of Rh123 against concentration of compound.

Ehrlich solid tumor = assay: In vivo activity in Ehrlich solid tumor model; set-up: species or system swiss mice; conditions: i/p day 1-9, 1 0.75 mg/kg, 1g 1 mg/kg, 5-fluorouracil 22 mg/kg; for Mortality: dead/group size
Experimental: Ehrlich ascites carcinoma (EAC) cells were collected from the peritoneal cavity of the swiss mice (animal house of IIIM registered eith CPCSEA; registration no. 67/99/CPCSEA) weighing 18-23 gm, harbouring 8-10 days old ascitic tumor. 1×10^7 EAC cells were injected intramuscularly in the right thigh of 38 swiss male mice selected for the experiment on day 0. The next day, animals were randomized and divided into five groups. Four treatment groups contained 7 animals each and one control group contained 10 animals. Treatment was given as follows:
Group I: 1 (0.75 mg/kg, i/p) from day 1-9.
Group II: 1g (1 mg/kg, i/p) from day 1-9.
The third treatment group was treated with 5-fluorouracil (22 mg/kg, i/p) from day 1-9 and it served as positive control. The control group was similarly administered normal saline (0.2 ml, i/p) from day 1-9. On day 9 & 13, tumor bearing thigh of each animal was shaved and longest and shortest diameters of the tumor were measured with the help of vernier caliper. Tumor weight of each animal was calculated using the following formula.
The percent tumor growth inhibition was calculated on day 13 by comparing the average values of treated groups with that of control group. Tumor growth in saline treated control animals was taken to be 100%.

[2] = test system: microtubules in HCT-116 cells; assay: Effect of compounds on microtubules, confocal microscopy; assay type: cell-based, Human; conditions: 100 nM, 24 h, anti-α-tubulin staining, compared to control
Experimental: For detection of tubulins, HCT-116 cells (1×10^5 cells/well) were seeded on to 18 mm square cover slips in six well plates in complete medium. […] After the treatment period, cells were fixed in 4% paraformaldehyde for 10 min at room temperature and permeabilized using 0.5% Triton-X in PBS for 5 min. The cells were blocked with 10% goat serum for 20 min at room temperature. Microtubules were detected with a monoclonal α-tubulin antibody (Sigma, Catalogue number: T9026) diluted 1:100 in 0.1% Triton X-100 in PBS for 1 h at room temperature and Alexa Fluor 488 conjugated secondary antibody (Invitrogen) diluted 1:500 in PBS for 1 h at room temperature. Cells were then washed three times in PBS and stained with 4′,6-diamidino-2-phenylindole (DAPI 1 μg/ml in PBS). The cover slips were mounted over glass slides and cells were imaged by a laser scanning confocal microscope (Olympus Fluoview FV1000). The promising candidates identified through P-gp screening and antiproliferative screening were further studied for tubulin polymerization inhibition activity.

[3] = male, mouse, plasma, IV 1 mg/Kg
[4] = male, mouse, plasma, PO 10 mg/Kg

COc1cc2c(c(OC)c1OC)-c1ccc(Nc3ccc(Cl)c(C(F)(F)F)c3)c(=O)cc1[C@@H](NC(C)=O)CC2 [Compound 1g, N-[(7S)-1,2,3-Trimethoxy-9-oxo-10-[3-(trifluoromethyl)-4-chloro-phenylamino]-5,6,7,9-tetrahydrobenzo[a]heptalen-7-yl]acetamide]
pIC50 (HCT-116): 7.40 | Tlast ([1]; IV 1 mg/Kg): 8.00 h | CL ([1]; IV 1 mg/Kg, 1 mg/kg): 6.19 mL/min/kg | bioavailability [1]: 64.4 % F | clearance ([1]; male, BALB/c, mouse, plasma, iv, 1 mg/kg, IV 1 mg/Kg): ~6 mL/min/kg | Vd ([1]; male, BALB/c, mouse, plasma, iv, 1 mg/kg, IV 1 mg/Kg, read-out: Vd): 1.49 L/kg | Vd ([1]; male, BALB/c, mouse, plasma, iv, 1 mg/kg, IV 1 mg/Kg, read-out: Vdss): 1.47 L/kg | AUC(0-inf) [1, 3]: 2690 ng·h/mL | AUC(0-t) [1, 3]: 2340 ng·h/mL | Cmax [1, 3]: 698 ng/mL | C0 ([1]; male, mouse, plasma, IV 1 mg/Kg, extrapolated, calculated manually using initial 3 time points): 819 ng/mL | half-life ([1]; male, mouse, plasma, IV 1 mg/Kg, read-out: t1/2, β (converted)): 2.78 h | bioavailability ([1]; male, mouse, plasma, read-out: absolute oral bioavailability): 64% | AUC(0-inf) [1, 4]: 17300 ng·h/mL | AUC(0-t) [1, 4]: 16900 ng·h/mL | Cmax [1, 4]: 3030 ng/mL | Tmax [1, 4]: 2 h | half-life ([1]; male, mouse, plasma, PO 10 mg/Kg, read-out: t1/2,β (converted)): 5.43 h | P-gp induction activity (P-gp; LS180 cells, Rh123 accumulation, in words): complete loss of P-gp induction activity | % intracellular accumulation of Rh123 in LS180 cells (P-gp; compound 100 nM, 48 h, control = 100%, decrease indicates P-gp induction): 90% | pEC50 (P-gp; read-out: EC50, induction of P-gp, P-gp overexpressing LS-180 cells, 48 h): 7.16 | Avg. body weights (g) of animal on days 1 (Ehrlich solid tumor; day 1): 22.28 g | Avg. body weights (g) of animal on days 5 (Ehrlich solid tumor; day 5): 22.0 g | Avg. body weights (g) of animal on days 9 (Ehrlich solid tumor; day 9): 21.28 g | Day 13 Avg. body weights (Ehrlich solid tumor; day 13): 21.66 g | Day 13 Avg. tumor weights (Ehrlich solid tumor; day 13): 778.0 mg | % Tumor Growth Inhibition (Ehrlich solid tumor; day 13 vs saline control): 47.35% | Mortality (Ehrlich solid tumor): no mortality and 0/7 | Mortality (Ehrlich solid tumor; listed as 4o): no mortality | disruption of microtubule assembly [2]: remarkable disruption and loss of microtubules
